Results as given in US7598377B2, “Inhibition of phosphoinositide 3-kinase β” (AstraZeneca AB, priority 2002, dated 2009).

Columns and labels:
p110γ-PI3K = p110γ-PI3K (Homo sapiens, UniProt P48736); assay: In vitro enzyme assay, p110γ recombinant protein (Biological Example 1); assay type: biochemical; conditions: Table I; read-out: inhibitory concentration, gamma
Excerpt: Reactions were terminated and lipid products analysed as described above for the other PI 3-kinase isoforms assays.

p110δ-PI3K = target: T1, p110δ-PI3K (Homo sapiens, UniProt O00329); assay: In vitro enzyme assay, p110δ immunoprecipitated from platelet lysate (Biological Example 1); assay type: biochemical; conditions: Table I; read-out: inhibitory concentration, delta
T1 construct: from tissue; host or cells: washed platelets (lysate, immunoprecipitated with anti-p110δ antibody)
T1 sequence (O00329 whole entry): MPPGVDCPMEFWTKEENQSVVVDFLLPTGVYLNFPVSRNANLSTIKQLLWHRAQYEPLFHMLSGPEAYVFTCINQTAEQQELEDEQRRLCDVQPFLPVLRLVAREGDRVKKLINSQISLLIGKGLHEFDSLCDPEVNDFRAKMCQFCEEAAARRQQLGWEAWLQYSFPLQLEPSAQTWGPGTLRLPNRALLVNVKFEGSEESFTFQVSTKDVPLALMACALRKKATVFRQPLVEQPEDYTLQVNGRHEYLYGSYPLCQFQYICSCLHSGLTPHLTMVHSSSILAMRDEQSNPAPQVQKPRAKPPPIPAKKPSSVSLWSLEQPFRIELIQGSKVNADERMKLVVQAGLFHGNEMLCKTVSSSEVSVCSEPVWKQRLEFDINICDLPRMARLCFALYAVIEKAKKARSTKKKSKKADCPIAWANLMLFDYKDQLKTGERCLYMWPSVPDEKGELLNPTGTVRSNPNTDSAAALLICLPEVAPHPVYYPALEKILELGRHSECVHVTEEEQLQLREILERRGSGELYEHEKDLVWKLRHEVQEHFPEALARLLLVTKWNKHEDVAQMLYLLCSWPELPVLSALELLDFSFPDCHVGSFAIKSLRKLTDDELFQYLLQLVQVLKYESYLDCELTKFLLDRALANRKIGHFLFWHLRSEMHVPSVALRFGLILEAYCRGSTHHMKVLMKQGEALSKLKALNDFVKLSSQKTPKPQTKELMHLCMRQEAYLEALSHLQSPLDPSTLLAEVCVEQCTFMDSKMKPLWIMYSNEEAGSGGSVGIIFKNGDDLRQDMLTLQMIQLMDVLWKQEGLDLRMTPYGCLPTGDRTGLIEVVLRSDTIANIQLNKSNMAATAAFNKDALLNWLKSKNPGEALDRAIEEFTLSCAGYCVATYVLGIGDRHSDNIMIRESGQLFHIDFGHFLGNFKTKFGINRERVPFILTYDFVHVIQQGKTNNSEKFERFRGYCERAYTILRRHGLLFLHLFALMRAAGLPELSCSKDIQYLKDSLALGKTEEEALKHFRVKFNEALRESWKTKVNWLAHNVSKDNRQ
T1 sequence (P27986 whole entry partner): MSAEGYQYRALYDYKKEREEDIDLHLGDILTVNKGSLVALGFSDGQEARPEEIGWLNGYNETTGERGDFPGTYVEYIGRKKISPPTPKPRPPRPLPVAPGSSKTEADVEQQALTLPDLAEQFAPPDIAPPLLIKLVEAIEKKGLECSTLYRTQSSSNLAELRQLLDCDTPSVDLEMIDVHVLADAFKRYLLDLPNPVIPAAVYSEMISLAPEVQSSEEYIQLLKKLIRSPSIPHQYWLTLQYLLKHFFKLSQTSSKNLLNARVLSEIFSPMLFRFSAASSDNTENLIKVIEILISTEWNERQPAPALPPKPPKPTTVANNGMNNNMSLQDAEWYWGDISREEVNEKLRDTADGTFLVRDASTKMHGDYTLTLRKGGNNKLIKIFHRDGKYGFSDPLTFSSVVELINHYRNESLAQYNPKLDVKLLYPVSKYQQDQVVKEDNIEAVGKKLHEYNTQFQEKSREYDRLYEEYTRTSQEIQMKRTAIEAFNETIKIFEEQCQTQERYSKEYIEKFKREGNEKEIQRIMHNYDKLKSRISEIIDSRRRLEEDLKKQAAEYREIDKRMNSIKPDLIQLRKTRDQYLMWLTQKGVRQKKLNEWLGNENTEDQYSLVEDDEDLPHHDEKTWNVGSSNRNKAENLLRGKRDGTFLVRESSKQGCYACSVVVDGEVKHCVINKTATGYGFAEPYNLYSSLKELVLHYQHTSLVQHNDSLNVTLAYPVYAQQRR
Procedure: (§1) For each immunoprecipitation, 1 mg of lysate was incubated with an anti-p110α (1 μg), anti-p110β (1 μg), anti-p110δ (1 μg) or anti-PI4 kinase antibody (2-5 μg) and 50 μl of a 50% slurry of protein A beads overnight at 4° C. […] For PI4 kinase assays, protein A beads-immune complexes were also washed twice with lysis buffer, prior to two washes with 1× PI4 kinase assay buffer (20 mM Hepes, pH 7.5, 10 mM MgCl2, 0.3% Triton X-100) and the addition of other assay constituents, as described above. All reactions were terminated by the addition of 100 μl 1 M HCl, 200 μl choloroform/methanol (1:1) and 500 μl 2 M KCl and lipids extracted by centrifugation at 15,000×g for 2 minutes. The production of PI3 or PI4 kinase lipid products, PtdIns(3)P and PtdIns(4)P, were confirmed through TLC analysis. The lipid spots were then removed from the TLC plate and the level of radioactivity quantified to accurately determine the level of PtdIns(3)P/PtdIns(4)P production.

p110β-PI3K = target: T2, p110β-PI3K (Homo sapiens, UniProt P42338); assay: In vitro enzyme assay, p110β immunoprecipitated from platelet lysate (Biological Example 1); assay type: biochemical; conditions: Table I; for IC50: read-out: inhibitory concentration, beta
T2 construct: The α and β isoforms of the PI3K were immunoprecipitated from a platelet lysate; from tissue; host or cells: washed platelets (lysate, immunoprecipitated with anti-p110β antibody)
T2 sequence (P42338 whole entry, canonical isoform): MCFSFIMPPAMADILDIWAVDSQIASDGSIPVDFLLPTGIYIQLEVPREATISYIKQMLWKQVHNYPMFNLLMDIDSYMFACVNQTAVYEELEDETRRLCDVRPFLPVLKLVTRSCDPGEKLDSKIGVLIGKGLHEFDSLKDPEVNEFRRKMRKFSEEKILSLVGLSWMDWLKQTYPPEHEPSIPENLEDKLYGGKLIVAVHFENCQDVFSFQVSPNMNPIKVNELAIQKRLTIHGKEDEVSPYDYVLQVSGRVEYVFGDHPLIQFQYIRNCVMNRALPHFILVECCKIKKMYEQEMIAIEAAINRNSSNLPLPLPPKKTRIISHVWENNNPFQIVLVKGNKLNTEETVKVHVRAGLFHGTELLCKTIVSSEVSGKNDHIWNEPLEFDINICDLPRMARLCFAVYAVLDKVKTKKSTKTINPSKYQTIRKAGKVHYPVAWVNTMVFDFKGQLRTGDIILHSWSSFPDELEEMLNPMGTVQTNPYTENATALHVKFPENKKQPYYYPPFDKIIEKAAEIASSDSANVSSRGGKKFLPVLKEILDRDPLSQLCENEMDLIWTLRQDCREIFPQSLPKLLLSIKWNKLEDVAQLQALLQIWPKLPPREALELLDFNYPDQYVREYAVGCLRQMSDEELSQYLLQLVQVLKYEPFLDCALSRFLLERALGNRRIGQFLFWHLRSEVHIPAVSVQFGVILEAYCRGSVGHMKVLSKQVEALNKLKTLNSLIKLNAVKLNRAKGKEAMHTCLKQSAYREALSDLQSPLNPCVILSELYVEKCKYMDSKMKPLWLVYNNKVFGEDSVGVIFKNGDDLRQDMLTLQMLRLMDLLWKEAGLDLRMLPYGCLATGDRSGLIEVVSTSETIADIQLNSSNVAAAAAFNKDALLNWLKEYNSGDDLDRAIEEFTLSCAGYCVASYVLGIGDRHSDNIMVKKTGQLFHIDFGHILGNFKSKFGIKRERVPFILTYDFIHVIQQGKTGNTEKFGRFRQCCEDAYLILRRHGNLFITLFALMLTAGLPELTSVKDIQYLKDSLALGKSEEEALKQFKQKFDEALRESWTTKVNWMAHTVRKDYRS
T2 sequence (P27986 whole entry partner, canonical isoform): as the sequence (P27986 whole entry partner) above
Procedure: as §1, with “The production of PI3 or PI4 kinase lipid products, PtdIns(3)P and PtdIns(4)P, were confirmed through TLC analysis.” left out

p110α-PI3K = target: T3, p110α-PI3K (Homo sapiens, UniProt P42336); assay: In vitro enzyme assay, p110α immunoprecipitated from platelet lysate (Biological Example 1); assay type: biochemical; conditions: Table I; read-out: inhibitory concentration, alpha
T3 construct: The α and β isoforms of the PI3K were immunoprecipitated from a platelet lysate; from tissue; host or cells: washed platelets (lysate, immunoprecipitated with anti-p110α antibody)
T3 sequence (P42336 whole entry, canonical isoform): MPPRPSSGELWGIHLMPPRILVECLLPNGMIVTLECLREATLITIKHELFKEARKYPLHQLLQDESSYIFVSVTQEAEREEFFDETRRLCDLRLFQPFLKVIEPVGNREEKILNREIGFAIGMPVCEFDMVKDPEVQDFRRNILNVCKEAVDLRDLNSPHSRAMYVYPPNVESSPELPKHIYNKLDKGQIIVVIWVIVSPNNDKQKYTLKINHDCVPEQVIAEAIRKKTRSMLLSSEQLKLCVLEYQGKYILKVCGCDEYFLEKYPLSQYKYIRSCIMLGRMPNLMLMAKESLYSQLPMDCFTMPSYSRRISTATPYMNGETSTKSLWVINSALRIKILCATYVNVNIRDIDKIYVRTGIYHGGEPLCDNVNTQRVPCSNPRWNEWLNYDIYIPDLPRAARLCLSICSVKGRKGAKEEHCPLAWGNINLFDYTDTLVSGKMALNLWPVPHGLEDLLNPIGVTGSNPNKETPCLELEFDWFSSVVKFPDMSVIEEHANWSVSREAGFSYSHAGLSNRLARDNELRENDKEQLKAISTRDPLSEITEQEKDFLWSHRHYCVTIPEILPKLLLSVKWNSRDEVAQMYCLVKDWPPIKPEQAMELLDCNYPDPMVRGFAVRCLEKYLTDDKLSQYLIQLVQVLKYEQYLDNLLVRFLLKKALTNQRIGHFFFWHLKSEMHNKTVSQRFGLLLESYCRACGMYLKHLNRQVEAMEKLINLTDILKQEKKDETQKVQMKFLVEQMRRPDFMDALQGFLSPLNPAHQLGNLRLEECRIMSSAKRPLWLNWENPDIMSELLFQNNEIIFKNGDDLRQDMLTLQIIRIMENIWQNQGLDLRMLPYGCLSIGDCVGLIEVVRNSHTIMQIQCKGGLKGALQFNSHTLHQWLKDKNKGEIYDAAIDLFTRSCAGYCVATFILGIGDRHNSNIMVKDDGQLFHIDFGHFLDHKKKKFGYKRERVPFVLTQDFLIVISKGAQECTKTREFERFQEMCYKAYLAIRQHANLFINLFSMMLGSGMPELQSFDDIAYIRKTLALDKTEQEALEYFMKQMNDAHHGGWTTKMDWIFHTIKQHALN
T3 sequence (P27986 whole entry partner, canonical isoform): as the sequence (P27986 whole entry partner) above
Procedure: as §1

[1] = system: platelets on immobilized vWf; assay: In vitro flow studies: platelet calcium flux and adhesion on immobilized vWf; assay type: cell-based; conditions: vWf matrix, shear rate gradient up to 10,000 s^−1 over 1 s
Procedure: The use of an in vitro-flow based adhesion assay enables us to simultaneously analyze platelet adhesion dynamics and activation (by monitoring cytosolic calcium flux) on immobilized von Willebrand factor (vWf). Briefly, isolated platelets are perfused through vWf (100 μg/ml) coated microcapillary tubes and analysis of cytosolic calcium flux conducted in real-time by confocal microscopy.
Washed platelets (1.5×10^9) suspended in PWB were incubated with the calcium indicator dyes, Oregon Green 488 BAPTA-1, AM (1 μM) and Fura Red, AM (1.25 μM), for 30 min at 37° C. Platelets were washed twice with PWB prior to being resuspended in Tyrode's buffer containing 1 mM calcium.
For static adhesion assays, platelets were allowed to settle on the surface of vWf-coated coverslips for 30 min at 37° C. For flow assays, platelets were either perfused over a vWf-coated microcapillary tube at a constant shear rate of 600, 1800 or 10,000 s^−1 or allowed to settle on the surface of a vWf-coated microcapillary tube prior to being accelerated through a shear gradient of 10,000 s^−1 over a 1 s interval. Real time platelet calcium flux in individual platelets was monitored at 1 s intervals over the 30 min incubation period or at 0.586 s intervals for up to 175 s for static and flow-based assays, respectively.

p110γ-PI3K, sequence (P48736 whole entry, canonical isoform): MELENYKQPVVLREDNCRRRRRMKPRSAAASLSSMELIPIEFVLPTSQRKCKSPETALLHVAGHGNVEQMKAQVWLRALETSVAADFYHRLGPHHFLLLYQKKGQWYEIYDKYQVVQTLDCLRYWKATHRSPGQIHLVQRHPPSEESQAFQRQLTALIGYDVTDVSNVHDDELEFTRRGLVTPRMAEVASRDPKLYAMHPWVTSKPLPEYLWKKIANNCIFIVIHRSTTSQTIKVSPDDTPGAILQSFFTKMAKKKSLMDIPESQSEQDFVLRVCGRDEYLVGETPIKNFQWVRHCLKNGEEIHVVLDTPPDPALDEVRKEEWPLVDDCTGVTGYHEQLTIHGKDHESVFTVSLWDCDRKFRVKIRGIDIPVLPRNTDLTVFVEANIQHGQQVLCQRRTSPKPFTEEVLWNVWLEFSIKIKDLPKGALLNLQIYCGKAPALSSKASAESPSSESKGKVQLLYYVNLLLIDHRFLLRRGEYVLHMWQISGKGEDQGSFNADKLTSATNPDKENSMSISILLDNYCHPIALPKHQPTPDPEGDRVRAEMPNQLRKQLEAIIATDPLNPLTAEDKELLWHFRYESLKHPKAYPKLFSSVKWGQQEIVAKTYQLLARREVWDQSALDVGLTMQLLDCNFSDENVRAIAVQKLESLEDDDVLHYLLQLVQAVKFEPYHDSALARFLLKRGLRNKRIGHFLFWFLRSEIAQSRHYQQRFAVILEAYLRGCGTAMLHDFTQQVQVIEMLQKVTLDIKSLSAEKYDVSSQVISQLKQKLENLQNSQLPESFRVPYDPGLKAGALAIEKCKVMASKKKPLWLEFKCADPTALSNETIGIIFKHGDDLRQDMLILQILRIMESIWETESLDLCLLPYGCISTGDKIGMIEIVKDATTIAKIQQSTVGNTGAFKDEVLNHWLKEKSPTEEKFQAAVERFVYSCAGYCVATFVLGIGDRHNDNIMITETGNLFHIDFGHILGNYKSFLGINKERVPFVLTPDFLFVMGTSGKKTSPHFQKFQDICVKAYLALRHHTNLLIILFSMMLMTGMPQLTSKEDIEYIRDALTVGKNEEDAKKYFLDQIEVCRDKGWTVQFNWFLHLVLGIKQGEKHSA

Compound	IC50 (p110γ-PI3K) [nM]	IC50 (p110δ-PI3K) [nM]	Ratio δ/β (p110β-PI3K)	IC50 (p110β-PI3K) [nM]	IC50 (p110α-PI3K) [nM]	platelet responses to accelerated shear [1]
Cc1cc(CN(C)c2ccccc2)c2nc(N3CCOCC3)cc(=O)n2c1 (racemic) [TGX-195, (±)-7-methyl-9-{[methyl(phenyl)amino]methyl}-2-morpholin-4-yl-pyrido[1,2-a]pyrimidin-4-one]	> 5000	500	25.00	20	> 5000	
Cc1cc(C(C)Nc2cc(F)cc(F)c2)c2nc(N3CCOCC3)cc(=O)n2c1 (racemic) [TGX-239, (±)-9-[1-(3,5-difluorophenylamino)ethyl]-7-methyl-2-morpholin-4-yl-pyrido[1,2-a]pyrimidin-4-one]	> 5000	80	11.43	7	> 5000	
Cc1cc(C(C)Nc2ccc(Cl)cc2)c2nc(N3CCOCC3)cc(=O)n2c1 (racemic) [TGX-243, (±)-9-[1-(4-chlorophenylamino)ethyl]-7-methyl-2-morpholin-4-yl-pyrido[1,2-a]pyrimidin-4-one]	> 5000	2000	40.00	50	> 5000	
Cc1cc(C(C)Nc2ccc(Cl)c(Cl)c2)c2nc(N3CCOCC3)cc(=O)n2c1 (racemic) [TGX-244, (±)-9-[1-(3,4-dichlorophenylamino)ethyl]-7-methyl-2-morpholin-4-yl-pyrido[1,2-a]pyrimidin-4-one]	> 5000	1000	20.00	50	> 5000	
Cc1cc(C(C)Nc2cccc(Cl)c2)c2nc(N3CCOCC3)cc(=O)n2c1 (racemic) [TGX-248, (±)-9-[1-(3-chlorophenylamino)ethyl]-7-methyl-2-morpholin-4-yl-pyrido[1,2-a]pyrimidin-4-one]	> 5000	100	10.00	10	> 5000	
Cc1cccc(NC(C)c2cc(C)cn3c(=O)cc(N4CCOCC4)nc23)c1 (racemic) [TGX-262, (±)-7-methyl-9-[1-(3-methylphenylamino)ethyl]-2-morpholin-4-yl-pyrido[1,2-a]pyrimidin-4-one]	> 5000	1000	20.00	50	> 5000	
Cc1cc(C(C)Nc2cccc(C(F)(F)F)c2)c2nc(N3CCOCC3)cc(=O)n2c1 (racemic) [TGX-264, (±)-7-methyl-2-morpholin-4-yl-9-[1-(3-trifluoromethylphenylamino)ethyl]-pyrido[1,2-a]pyrimidin-4-one]	> 5000	10000	133.33	75	> 5000	
Cc1cc(C(C)Nc2ccccn2)c2nc(N3CCOCC3)cc(=O)n2c1 (racemic) [TGX-295, (±)-7-methyl-2-morpholin-4-yl-9-[1-(2-pyridinylamino)ethyl]-pyrido[1,2-a]pyrimidin-4-one]	> 5000	2000	40.00	50	> 5000	
COC[C@H]1OC(=O)c2coc3c2[C@@]1(C)C1=C(C3=O)[C@@H]2CCC(=O)[C@@]2(C)C[C@H]1OC(C)=O [wortmannin, reference compound]						eliminates platelet responses to accelerated shear
